# In publication PMC11990670, “Exploring the Volatility, Phase Transitions, and Solubility Properties of Five Halogenated Benzaldehydes” (Molecules, 2025):
# Assays:
# [1] = Thermodynamic properties of sublimation and vaporization from Clarke and Glew fit of vapor pressures
# From the text: The experimental crystalline and liquid vapor pressures were independently fitted by the Clarke and Glew Equation (1) in its truncated form:(1) Rlnp/p^°=−ΔcdgGm°θ/θ+ΔcdgHm°θ1/θ−1/T+ΔcdgCp,m°θθ/T−1+lnT/θ where R is the molar gas constant, p is the vapor pressure at the temperature T, p° is a selected reference pressure (p° = 10^5 Pa in this work), and θ is a reference temperature. The differences between gaseous and condensed phases of standard molar Gibbs energy, enthalpy, and the isobaric heat capacity are represented, respectively, by ΔcdgGm° , ΔcdgHm° , and ΔcdgCp,m° .
# The values of ΔcdgCp,m° are generally achieved only when accurate experimental data measured over ca. 50 K are reachable. […] For comparison reasons, the values of ΔcrgCp,m° were also calculated as ΔcrgCp,m°(θ)=Cp,m°(g)−Cp,m°(cr) , where the terms Cp,m°(g) and Cp,m°(cr) are, respectively, the gas and crystalline isobaric molar heat capacities. […] The crystalline molar heat capacities, Cp,m°(cr) , were determined at different temperatures using differential scanning calorimetry, enabling the fit to second-order polynomials in temperature, represented by Equation (3) and reported in Table 3. […] The values of Cp,m°(cr,298.15 K) were derived from these equations, allowing ΔcrgCp,m°(298.15 K) to be calculated.
# [2] = Equilibrium solubility in water, saturation shake-flask method with UV-vis; details: 25 °C, thermodynamic from solid
# Procedure: (§1) The concentration was measured by absorbances at 260 nm for 4-chlorobenzaldehyde, 263 nm for 4-bromobenzaldehyde and 2,4-dichlorobenzaldehyde, 297 nm for 2,6-dichlorobenzaldehyde, and 306 nm for 2,3-dichlorobenzaldehyde, using a Cary-60 UV–vis (Agilent) spectrophotometer. X-ray diffraction (XRD) and differential scanning calorimetry of residual solids were used to identify the eventual phase transformations. The purified samples of each compound studied were used for all experimental determinations, including the solubility measurements. After reaching the equilibrium, the residual solid was dried and analyzed using both DSC and XRD. The melting properties obtained from DSC were compared with those of the original purified sample, following the same procedure for the XRD analysis. […] As an example, the supporting information includes two thermograms and two XRD patterns for 2,4-dichlorobenzaldehyde (Figures S1 and S2). […] Equation (4) was derived from Equation (5), which is widely applicable to the solubility of solids.(4) ΔhydrGm°/kJ·mol^−1=9.17−5.71·log10(Scr/mol·m^−3)−ΔcrgGm°/kJ·mol^−1 (5) S=p^°/RTexpΔcrgGm°+ΔhydrGm°/−RT
# (§2) An excess amount of each compound was added to a known volume of water in triplicate. […] After stirring, the solid phase was allowed to settle for 2 h. The pH of the saturated solutions was measured using a Mettler Toledo (Greifensee, Switzerland) FiveEasy F20 pH Meter calibrated with standard aqueous solutions (pH 7.00 and 4.01 or 10.1). Those solutions were then filtered through a 0.22 μm syringe hydrophilic filter (13 mm, PTFE, Labfil, Zhejiang, China) and diluted to the required concentration. The concentration of the compounds, expressed in molarity, was measured by absorbances using a Cary-60 UV–vis spectrophotometer (Agilent Technologies, Santa Clara, CA, USA) at 298.15 K (single cell Peltier accessory, ±0.15 K). The results reported in Table 6 are averaged from at least three replicates. Calibration was performed using solutions of known concentrations of each substance in water. These solutions were prepared by adding a precise mass of the substance and a specific volume of the solvent to a flask, then mixing until the substance was fully dissolved. The absorbance of these solutions was measured, and calibration curves were created.
# [3] = Gibbs energy of hydration and Henry's law volatility constant calculated from sublimation and solubility data; details: 25 °C; for Gibbs energy of hydration ΔhydrGm°: calculated by Equation (4); for log10(KHpc/kPa·m^3·mol^−1) Henry's law volatility constant: calculated by Equation (6); for KHpc×10^3 Henry's law volatility constant: value is KHpc multiplied by 10^3
# Procedure: as §1
# The standard states in Equation (5) are p° = 1 × 10^5 Pa for ΔcrgGm° , c° = 1 mol·L^−1 for ΔhydrGm° and s° = 1 mol·m^−3 for solubility. Using the experimental results of ΔhydrGm° , calculated through Equation (4), the values of Henry’s law volatility constants, KHpc, were determined in the logarithm form by Equation (6), that was adapted from Modarressi et al..
# [4] = pH of the saturated aqueous solutions; assay type: physicochemical; details: saturated aqueous solution of the solubility experiment
# Procedure: as §1, §2
# [5] = crystalline phase, θ = 298.15 K
# [6] = crystalline phase, θ = 298.15 K, p° = 10^5 Pa
# [7] = crystalline phase, θ = 307.92 K (mean temperature)
# [8] = crystalline phase, θ = 334.82 K (triple point)
# [9] = liquid phase including supercooled liquid, θ = 298.15 K
# [10] = liquid phase including supercooled liquid, θ = 298.15 K, p° = 10^5 Pa
# [11] = liquid phase, θ = 334.82 K (triple point)
# [12] = liquid phase, θ = 354.31 K (mean temperature)
# [13] = crystalline phase, θ = 313.72 K (mean temperature)
# [14] = crystalline phase, θ = 343.90 K (triple point)
# [15] = liquid phase, θ = 343.90 K (triple point)
# [16] = liquid phase, θ = 350.04 K (mean temperature)
# [17] = crystalline phase, θ = 315.46 K (mean temperature)
# [18] = crystalline phase, θ = 342.99 K (triple point)
# [19] = liquid phase, θ = 342.99 K (triple point)
# [20] = liquid phase, θ = 358.95 K (mean temperature)
# [21] = crystalline phase, θ = 303.88 K (mean temperature)
# [22] = crystalline phase, θ = 330.02 K (triple point)
# [23] = liquid phase, θ = 330.02 K (triple point)
# [24] = liquid phase, θ = 345.37 K (mean temperature)
"p (Equation (1)) vapor pressure [1, 5] [Pa]","ΔcdgGm°(θ) standard molar Gibbs energy of sublimation [1, 6] [kcal/mol]","ΔcdgHm°(θ) standard molar enthalpy of sublimation [1, 6] [kcal/mol]","ΔcdgSm°(θ) (Equation (2)) standard molar entropy of sublimation [1, 6] [J·K^−1·mol^−1]","p (Equation (1)) vapor pressure [1, 9] [Pa]","ΔcdgGm°(θ) standard molar Gibbs energy of vaporization [1, 10] [kcal/mol]","ΔcdgHm°(θ) standard molar enthalpy of vaporization [1, 10] [kcal/mol]","ΔcdgSm°(θ) (Equation (2)) standard molar entropy of vaporization [1, 10] [J·K^−1·mol^−1]",solubility at 72 h [2] [µM],Gibbs energy of hydration ΔhydrGm° [3] [kcal/mol],log10(KHpc/kPa·m^3·mol^−1) Henry's law volatility constant [3],KHpc×10^3 Henry's law volatility constant [3] [kPa·m^3·mol^−1],pH of the saturated solution [4],Compound,further results
2.47,6.286 ± 0.0024,19.4 ± 0.072,184.1 ± 1.0,5.81,5.779 ± 0.019,15 ± 0.263,129.2 ± 3.7,853,-3.99,−2.53,2.95,6.43,"O=Cc1cccc(Cl)c1Cl [2,3-Dichlorobenzaldehyde]","triple point pressure ptp ([1]; Ttp = 334.82 K): 87.6 Pa; p (Equation (1)) vapor pressure [1, 7]: 6.98 Pa; ΔcdgGm°(θ) standard molar Gibbs energy of sublimation [1, 7]: 5.856 ± 0.0024 kcal/mol; ΔcdgHm°(θ) standard molar enthalpy of sublimation [1, 7]: 19.4 ± 0.048 kcal/mol; p (Equation (1)) vapor pressure [1, 8]: 87.6 Pa; ΔcdgGm°(θ) standard molar Gibbs energy of sublimation [1, 8]: 4.685 ± 0.0072 kcal/mol; ΔcdgHm°(θ) standard molar enthalpy of sublimation [1, 8]: 19.2 ± 0.096 kcal/mol; p (Equation (1)) vapor pressure [1, 11]: 87.6 Pa; ΔcdgGm°(θ) standard molar Gibbs energy of vaporization [1, 11]: 4.685 ± 0.0072 kcal/mol; ΔcdgHm°(θ) standard molar enthalpy of vaporization [1, 11]: 14.3 ± 0.096 kcal/mol; p (Equation (1)) vapor pressure [1, 12]: 282 Pa; ΔcdgGm°(θ) standard molar Gibbs energy of vaporization [1, 12]: 4.132 ± 0.0024 kcal/mol; ΔcdgHm°(θ) standard molar enthalpy of vaporization [1, 12]: 14 ± 0.024 kcal/mol"
0.95,6.85 ± 0.0024,20.5 ± 0.096,192.0 ± 1.3,2.84,6.202 ± 0.0239,15.8 ± 0.287,135.0 ± 4.0,1130,-4.73,−3.07,0.851,6.39,"O=Cc1c(Cl)cccc1Cl [2,6-Dichlorobenzaldehyde]","triple point pressure ptp ([1]; Ttp = 342.99 K): 85.7 Pa; p (Equation (1)) vapor pressure [1, 17]: 6.35 Pa; ΔcdgGm°(θ) standard molar Gibbs energy of sublimation [1, 17]: 6.059 ± 0.0024 kcal/mol; ΔcdgHm°(θ) standard molar enthalpy of sublimation [1, 17]: 20.4 ± 0.024 kcal/mol; p (Equation (1)) vapor pressure [1, 18]: 85.7 Pa; ΔcdgGm°(θ) standard molar Gibbs energy of sublimation [1, 18]: 4.814 ± 0.0048 kcal/mol; ΔcdgHm°(θ) standard molar enthalpy of sublimation [1, 18]: 20.2 ± 0.17 kcal/mol; p (Equation (1)) vapor pressure [1, 19]: 85.7 Pa; ΔcdgGm°(θ) standard molar Gibbs energy of vaporization [1, 19]: 4.814 ± 0.0048 kcal/mol; ΔcdgHm°(θ) standard molar enthalpy of vaporization [1, 19]: 15 ± 0.072 kcal/mol; p (Equation (1)) vapor pressure [1, 20]: 225 Pa; ΔcdgGm°(θ) standard molar Gibbs energy of vaporization [1, 20]: 4.348 ± 0.0024 kcal/mol; ΔcdgHm°(θ) standard molar enthalpy of vaporization [1, 20]: 14.7 ± 0.024 kcal/mol"
4.59,5.918 ± 0.0024,19 ± 0.048,183.3 ± 0.7,9.57,5.483 ± 0.012,14.6 ± 0.17,128.3 ± 2.4,3710,-4.49,−2.90,1.26,6.82,O=Cc1ccc(Br)cc1 [4-Bromobenzaldehyde],"triple point pressure ptp ([1]; Ttp = 330.02 K): 99.1 Pa; p (Equation (1)) vapor pressure [1, 21]: 8.40 Pa; ΔcdgGm°(θ) standard molar Gibbs energy of sublimation [1, 21]: 5.667 ± 0.0024 kcal/mol; ΔcdgHm°(θ) standard molar enthalpy of sublimation [1, 21]: 18.9 ± 0.048 kcal/mol; p (Equation (1)) vapor pressure [1, 22]: 99.1 Pa; ΔcdgGm°(θ) standard molar Gibbs energy of sublimation [1, 22]: 4.536 ± 0.0072 kcal/mol; ΔcdgHm°(θ) standard molar enthalpy of sublimation [1, 22]: 18.7 ± 0.17 kcal/mol; p (Equation (1)) vapor pressure [1, 23]: 99.1 Pa; ΔcdgGm°(θ) standard molar Gibbs energy of vaporization [1, 23]: 4.536 ± 0.0072 kcal/mol; ΔcdgHm°(θ) standard molar enthalpy of vaporization [1, 23]: 14 ± 0.072 kcal/mol; p (Equation (1)) vapor pressure [1, 24]: 254 Pa; ΔcdgGm°(θ) standard molar Gibbs energy of vaporization [1, 24]: 4.101 ± 0.0024 kcal/mol; ΔcdgHm°(θ) standard molar enthalpy of vaporization [1, 24]: 13.7 ± 0.024 kcal/mol"

Compound,"p (Equation (1)) vapor pressure [1, 5] [Pa]","ΔcdgGm°(θ) standard molar Gibbs energy of sublimation [1, 6] [kcal/mol]","ΔcdgHm°(θ) standard molar enthalpy of sublimation [1, 6] [kcal/mol]","ΔcdgSm°(θ) (Equation (2)) standard molar entropy of sublimation [1, 6] [J·K^−1·mol^−1]","p (Equation (1)) vapor pressure [1, 9] [Pa]","ΔcdgGm°(θ) standard molar Gibbs energy of vaporization [1, 10] [kcal/mol]","ΔcdgHm°(θ) standard molar enthalpy of vaporization [1, 10] [kcal/mol]","ΔcdgSm°(θ) (Equation (2)) standard molar entropy of vaporization [1, 10] [J·K^−1·mol^−1]",solubility at 72 h [2] [µM],Gibbs energy of hydration ΔhydrGm° [3] [kcal/mol],log10(KHpc/kPa·m^3·mol^−1) Henry's law volatility constant [3],KHpc×10^3 Henry's law volatility constant [3] [kPa·m^3·mol^−1],pH of the saturated solution [4],further results
"O=Cc1ccc(Cl)cc1Cl [2,4-Dichlorobenzaldehyde]",2.64,6.245 ± 0.0024,19.5 ± 0.048,185.7 ± 0.7,7.95,5.593 ± 0.012,14.8 ± 0.17,129.1 ± 2.4,821,-3.94,−2.50,3.16,6.57,"triple point pressure ptp ([1]; Ttp = 343.90 K): 2.01 × 10^2 Pa; p (Equation (1)) vapor pressure [1, 13]: 13.5 Pa; ΔcdgGm°(θ) standard molar Gibbs energy of sublimation [1, 13]: 5.557 ± 0.0024 kcal/mol; ΔcdgHm°(θ) standard molar enthalpy of sublimation [1, 13]: 19.4 ± 0.024 kcal/mol; p (Equation (1)) vapor pressure [1, 14]: 201 Pa; ΔcdgGm°(θ) standard molar Gibbs energy of sublimation [1, 14]: 4.242 ± 0.0048 kcal/mol; ΔcdgHm°(θ) standard molar enthalpy of sublimation [1, 14]: 19.1 ± 0.12 kcal/mol; p (Equation (1)) vapor pressure [1, 15]: 201 Pa; ΔcdgGm°(θ) standard molar Gibbs energy of vaporization [1, 15]: 4.242 ± 0.0048 kcal/mol; ΔcdgHm°(θ) standard molar enthalpy of vaporization [1, 15]: 14 ± 0.024 kcal/mol; p (Equation (1)) vapor pressure [1, 16]: 289 Pa; ΔcdgGm°(θ) standard molar Gibbs energy of vaporization [1, 16]: 4.068 ± 0.0024 kcal/mol; ΔcdgHm°(θ) standard molar enthalpy of vaporization [1, 16]: 13.9 ± 0.024 kcal/mol"
